Columns and labels:
Experiment in all cases: DSF 100 kinase selectivity screen;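 further: compound tested at 20 µM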
Format in all cases: binding
[1] = target: T1, ~100 representative kinases (Homo sapiens, UniProt Q96KB5); details: Protein TOPK; DSF; average of three replicates
T1 construct: Recombinant protein kinase domains with a concentration of 2 μM
T1 sequence (Q96KB5 1-322): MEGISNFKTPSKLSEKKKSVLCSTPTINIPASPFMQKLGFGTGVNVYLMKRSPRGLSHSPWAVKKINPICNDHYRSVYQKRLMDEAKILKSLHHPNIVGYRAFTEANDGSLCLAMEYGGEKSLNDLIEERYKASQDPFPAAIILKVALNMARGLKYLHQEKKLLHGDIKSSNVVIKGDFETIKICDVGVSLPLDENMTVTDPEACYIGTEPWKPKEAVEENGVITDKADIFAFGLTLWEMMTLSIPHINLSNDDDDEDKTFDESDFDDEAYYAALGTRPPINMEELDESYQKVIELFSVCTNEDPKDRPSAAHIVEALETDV
Procedure, shortened: (§1)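 Each kinase domain, at 2 μM, is mixed with 20 μM test compound and SYPRO Orange in Hepes (20 mM, pH 7.5) with 500 mM NaCl. Temperature is then raised at 3°C/min and fluorescence-monitored unfolding yields the melting temperature change, ΔTm in degrees Celsius.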

[2] = target: T2, ~100 representative kinases (Homo sapiens, UniProt Q02750); details: protein MAP2K1; average of three replicates
T2 construct: Recombinant protein kinase domains with a concentration of 2 μM
T2 sequence (Q02750 whole entry, the tested form may be a part): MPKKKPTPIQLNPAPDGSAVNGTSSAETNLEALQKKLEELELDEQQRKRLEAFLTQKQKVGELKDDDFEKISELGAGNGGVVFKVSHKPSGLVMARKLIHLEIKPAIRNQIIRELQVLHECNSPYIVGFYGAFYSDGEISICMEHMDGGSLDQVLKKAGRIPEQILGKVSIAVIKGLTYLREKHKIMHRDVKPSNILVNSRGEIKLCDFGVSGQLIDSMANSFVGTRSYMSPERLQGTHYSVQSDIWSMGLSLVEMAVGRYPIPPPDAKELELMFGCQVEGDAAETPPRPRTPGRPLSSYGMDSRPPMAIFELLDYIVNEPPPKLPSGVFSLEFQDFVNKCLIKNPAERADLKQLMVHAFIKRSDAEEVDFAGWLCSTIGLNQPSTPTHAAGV
Procedure, shortened: as §1

[3] = target: T3, ~100 representative kinases (Homo sapiens, UniProt O15164); details: Protein TIF1; DSF; average of three replicates
T3 construct: Recombinant protein kinase domains with a concentration of 2 μM
T3 sequence (O15164 1-1050): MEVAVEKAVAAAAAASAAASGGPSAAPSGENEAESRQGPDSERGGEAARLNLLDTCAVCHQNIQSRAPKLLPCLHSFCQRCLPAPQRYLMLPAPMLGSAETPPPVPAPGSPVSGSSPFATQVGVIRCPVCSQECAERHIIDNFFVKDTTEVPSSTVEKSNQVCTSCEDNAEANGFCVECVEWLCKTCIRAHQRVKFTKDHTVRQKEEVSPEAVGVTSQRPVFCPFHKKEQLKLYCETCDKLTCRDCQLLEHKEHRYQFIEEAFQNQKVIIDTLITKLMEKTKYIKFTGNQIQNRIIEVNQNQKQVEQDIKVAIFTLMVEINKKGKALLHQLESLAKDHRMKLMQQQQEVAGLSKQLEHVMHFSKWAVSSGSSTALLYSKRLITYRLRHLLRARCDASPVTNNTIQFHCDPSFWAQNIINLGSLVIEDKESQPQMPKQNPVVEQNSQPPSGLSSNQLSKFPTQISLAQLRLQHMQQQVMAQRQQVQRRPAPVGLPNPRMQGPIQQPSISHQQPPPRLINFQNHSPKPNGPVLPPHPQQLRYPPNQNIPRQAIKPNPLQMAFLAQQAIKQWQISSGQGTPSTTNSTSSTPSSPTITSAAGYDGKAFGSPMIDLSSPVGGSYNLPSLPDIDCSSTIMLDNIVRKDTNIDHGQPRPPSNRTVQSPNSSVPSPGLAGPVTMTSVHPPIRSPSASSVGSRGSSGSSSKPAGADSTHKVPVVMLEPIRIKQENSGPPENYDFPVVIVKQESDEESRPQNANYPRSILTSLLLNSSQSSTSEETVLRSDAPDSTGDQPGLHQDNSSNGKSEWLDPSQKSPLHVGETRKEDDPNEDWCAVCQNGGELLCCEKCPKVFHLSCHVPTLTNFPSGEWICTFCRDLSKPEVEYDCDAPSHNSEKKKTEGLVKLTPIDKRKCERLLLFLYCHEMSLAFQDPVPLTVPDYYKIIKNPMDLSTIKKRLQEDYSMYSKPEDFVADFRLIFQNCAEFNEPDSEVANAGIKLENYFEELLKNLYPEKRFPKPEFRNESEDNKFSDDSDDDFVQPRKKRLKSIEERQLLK
Procedure, shortened: as §1

[4] = target: T4, ~100 representative kinases (Homo sapiens, UniProt Q16654); details: protein PDK4; average of three replicates
T4 construct: Recombinant protein kinase domains with a concentration of 2 μM
T4 sequence (Q16654 whole entry, the tested form may be a part): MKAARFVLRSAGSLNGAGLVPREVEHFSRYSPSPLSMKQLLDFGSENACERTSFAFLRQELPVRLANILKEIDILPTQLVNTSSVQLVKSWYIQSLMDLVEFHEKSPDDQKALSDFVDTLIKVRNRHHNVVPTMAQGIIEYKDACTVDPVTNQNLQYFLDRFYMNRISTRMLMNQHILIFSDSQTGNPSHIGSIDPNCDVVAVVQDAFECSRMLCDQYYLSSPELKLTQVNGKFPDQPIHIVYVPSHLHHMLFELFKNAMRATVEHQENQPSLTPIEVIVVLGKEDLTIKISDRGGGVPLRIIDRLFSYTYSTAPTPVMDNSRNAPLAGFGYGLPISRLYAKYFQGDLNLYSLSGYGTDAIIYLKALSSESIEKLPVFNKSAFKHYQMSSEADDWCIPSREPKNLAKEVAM
Procedure, shortened: as §1

[5] = target: T5, ~100 representative kinases (Homo sapiens, UniProt Q9BRS2); details: Protein RIOK1; DSF; average of three replicates
T5 construct: Recombinant protein kinase domains with a concentration of 2 μM
T5 sequence (Q9BRS2 1-568): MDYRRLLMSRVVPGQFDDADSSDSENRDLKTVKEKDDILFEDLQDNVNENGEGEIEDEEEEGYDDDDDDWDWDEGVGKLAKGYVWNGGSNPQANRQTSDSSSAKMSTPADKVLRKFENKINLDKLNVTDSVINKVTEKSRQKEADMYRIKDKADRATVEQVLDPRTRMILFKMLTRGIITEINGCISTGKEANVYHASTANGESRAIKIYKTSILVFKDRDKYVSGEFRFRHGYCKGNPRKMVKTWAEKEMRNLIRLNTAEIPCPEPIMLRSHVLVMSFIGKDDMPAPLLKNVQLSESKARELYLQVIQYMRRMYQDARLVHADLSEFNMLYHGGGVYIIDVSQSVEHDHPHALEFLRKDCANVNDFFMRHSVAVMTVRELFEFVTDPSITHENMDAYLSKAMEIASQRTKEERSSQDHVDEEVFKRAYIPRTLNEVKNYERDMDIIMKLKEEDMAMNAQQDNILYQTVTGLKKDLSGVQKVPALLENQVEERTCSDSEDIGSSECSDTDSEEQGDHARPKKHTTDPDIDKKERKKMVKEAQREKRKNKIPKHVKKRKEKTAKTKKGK
Procedure, shortened: as §1

[6] = target: T6, ~100 representative kinases (Homo sapiens, UniProt P22607); details: protein FGFR3; average of three replicates
T6 construct: Recombinant protein kinase domains with a concentration of 2 μM
T6 sequence (P22607 23-806): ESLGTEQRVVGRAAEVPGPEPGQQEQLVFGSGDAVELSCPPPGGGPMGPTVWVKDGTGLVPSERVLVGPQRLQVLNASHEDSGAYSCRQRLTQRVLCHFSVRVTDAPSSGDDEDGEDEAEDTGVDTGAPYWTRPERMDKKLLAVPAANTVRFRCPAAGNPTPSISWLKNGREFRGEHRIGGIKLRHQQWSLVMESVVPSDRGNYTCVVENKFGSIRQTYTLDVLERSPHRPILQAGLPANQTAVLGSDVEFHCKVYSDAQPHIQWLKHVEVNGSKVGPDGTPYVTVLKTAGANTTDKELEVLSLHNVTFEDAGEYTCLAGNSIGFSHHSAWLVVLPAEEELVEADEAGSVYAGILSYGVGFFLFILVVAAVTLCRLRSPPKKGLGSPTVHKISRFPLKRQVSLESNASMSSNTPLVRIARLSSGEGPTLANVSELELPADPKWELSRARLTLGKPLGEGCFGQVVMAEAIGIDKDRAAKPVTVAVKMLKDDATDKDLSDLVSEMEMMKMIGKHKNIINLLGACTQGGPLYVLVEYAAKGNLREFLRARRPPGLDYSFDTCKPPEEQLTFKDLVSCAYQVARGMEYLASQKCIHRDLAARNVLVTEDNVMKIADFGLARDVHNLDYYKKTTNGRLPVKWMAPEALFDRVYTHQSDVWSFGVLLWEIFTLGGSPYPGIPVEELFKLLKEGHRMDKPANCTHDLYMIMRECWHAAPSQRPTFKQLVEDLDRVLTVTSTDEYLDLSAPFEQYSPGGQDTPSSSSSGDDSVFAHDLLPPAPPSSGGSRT
Procedure, shortened: as §1

[7] = target: T7, ~100 representative kinases (Homo sapiens, UniProt Q96GD4); details: Protein AURKB; average of three replicates
T7 construct: Recombinant protein kinase domains with a concentration of 2 μM
T7 sequence (Q96GD4 whole entry, the tested form may be a part): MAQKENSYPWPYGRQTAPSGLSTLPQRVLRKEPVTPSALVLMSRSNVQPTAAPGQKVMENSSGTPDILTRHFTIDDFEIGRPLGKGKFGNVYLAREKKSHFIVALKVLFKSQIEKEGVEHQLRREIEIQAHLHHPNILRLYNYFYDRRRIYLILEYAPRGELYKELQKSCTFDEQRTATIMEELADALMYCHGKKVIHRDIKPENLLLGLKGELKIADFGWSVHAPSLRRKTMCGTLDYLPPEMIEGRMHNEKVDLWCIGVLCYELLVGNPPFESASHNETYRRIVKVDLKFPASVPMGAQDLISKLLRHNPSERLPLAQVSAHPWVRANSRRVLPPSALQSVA
Procedure, shortened: as §1

Structure (SMILES)	dTm [1]	dTm [2]	dTm [3]	dTm [4]	dTm [5]	dTm [6]	dTm [7]
CCNc1nc(Nc2cc(F)c(C(=O)N3CCOCC3)cc2OC)ncc1C(F)(F)F [GNE-7915]	0.03 K	0.0455 K	-0.22 K	-0.0168 K	-0.09 K	1.40 K	-1.42 K
C[C@@H]1CN(c2cc(-c3n[nH]c4ccc(OC5(C)CC5)cc34)ncn2)C[C@H](C)O1 [MLi2]	0.0743 K	-0.0332 K	0.28 K	-0.0742 K	-1.66 K	0.31 K	-0.83 K
Cn1cc(-c2c[nH]c3ncnc(N4CCOCC4)c23)cc1C#N [PFE-360]	0.66 K	0.65 K	0.08 K	-0.55 K	-0.58 K	2.13 K	2.36 K
Cc1ccc(C(=O)Nc2ccc(CN3CCN(C)CC3)c(C(F)(F)F)c2)cc1C#Cc1cnc2[nH]ncc2c1 [GZD-824, reference compound]	4.33 K	0.63 K	0.34 K	-0.28 K	2.49 K	14.11 K	1.02 K
